Source: patent US20100239498A1, “METHOD OF MAINTAINING THE FUNCTION OF LIVER TISSUE CELLS OVER LONG TIME” (priority 2006, published 2010)

System: CYP1A
Assay: CYP1A induction in transplanted murine subcutaneous hepatic tissue, tissue staining (Example 3)
Format: in vivo, mouse
Settings: 120 days after transplantation; intraperitoneal once a day for three days; tissue staining 24 hours after final administration
Method: The murine hepatic tissue cell sheet as obtained in Example 1 was transplanted by application into a murine subcutaneous site having undergone the induction of angiogenesis in accordance with the method of transplanting a hepatic cell sheet as shown in Example 1. One hundred twenty days after transplantation, 3-methylcholantrene (Sigma-Aldrich, St. Louis, Mo.) was intraperitoneally administered once a day and continuously for three days, and 24 hours after the final administration, the mouse was killed and the hepatic tissue prepared was subjected to tissue staining (Example 3). […] Further, CYP1A means CYP1A activity.

SMILES: Cc1ccc2cc3c(ccc4ccccc43)c3c2c1CC3 [3-methylcholantrene]
- induction of CYP1A (CYP1A activity) in prepared murine subcutaneous hepatic tissue: strongly induced
